Results taken from the NIST ThermoML archive (doi:10.1016/j.fluid.2008.03.009).

Settings: Liquid, Vibrating tube method

CCCO [propan-1-ol]
Settings | mass density [kg/m3]
298.15 K, 110 kPa | 799.54
298.15 K, 5270 kPa | 803.6
298.15 K, 9870 kPa | 807.01
298.15 K, 14700 kPa | 810.46
298.15 K, 20530 kPa | 814.46
298.15 K, 25030 kPa | 817.44
298.15 K, 30100 kPa | 820.7
298.15 K, 35010 kPa | 823.76
298.15 K, 39560 kPa | 826.52
323.15 K, 590 kPa | 779.78
323.15 K, 5940 kPa | 784.71
323.15 K, 10600 kPa | 788.81
323.15 K, 16000 kPa | 793.2
323.15 K, 20640 kPa | 796.73
323.15 K, 24880 kPa | 799.83
323.15 K, 30800 kPa | 803.99
323.15 K, 35220 kPa | 807.01
323.15 K, 39790 kPa | 810.02
348.15 K, 140 kPa | 757.11
348.15 K, 5170 kPa | 762.68
348.15 K, 10260 kPa | 767.5
348.15 K, 15790 kPa | 772.52
348.15 K, 20560 kPa | 776.41
348.15 K, 24810 kPa | 780.32
348.15 K, 29300 kPa | 784.09
348.15 K, 35560 kPa | 789.01
348.15 K, 39950 kPa | 792.23
373.15 K, 360 kPa | 733.24
373.15 K, 5480 kPa | 739.29
373.15 K, 10290 kPa | 745.11
373.15 K, 15700 kPa | 750.9
373.15 K, 19960 kPa | 755.19
373.15 K, 25170 kPa | 760.17
373.15 K, 30510 kPa | 765.02
373.15 K, 35920 kPa | 769.7
373.15 K, 39780 kPa | 772.91
398.15 K, 620 kPa | 705.55
398.15 K, 5670 kPa | 713.23
398.15 K, 10620 kPa | 720.1
398.15 K, 15580 kPa | 726.46
398.15 K, 20350 kPa | 732.35
398.15 K, 25090 kPa | 737.77
398.15 K, 31150 kPa | 744.07
398.15 K, 35410 kPa | 748.41
398.15 K, 39390 kPa | 752.32
423.15 K, 1570 kPa | 674.63
423.15 K, 5870 kPa | 682.79
423.15 K, 10160 kPa | 690.93
423.15 K, 15320 kPa | 699.32
423.15 K, 20500 kPa | 707.2
423.15 K, 26280 kPa | 715.01
423.15 K, 31600 kPa | 721.36
423.15 K, 35780 kPa | 726.03
423.15 K, 39700 kPa | 730.17
